Assay results published in patent publication US20200017496A1 (priority 2017, published 2020).
Read-outs that look alike come from different tables or passages of the source.

Tests used:
[1] = test system: Klebsiella pneumoniae (KPN) isolates; test: MIC of compounds alone and combined with antibacterials, broth microdilution (CLSI); format: cell-based; conditions: Klebsiella pneumoniae, read-out: MIC
How it was run: (§1)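 Inoculum 5·10^5 CFU/mL (final), log phase, ca-MHB; 16-20 h, 35° C, ambient air. MIC = lowest conc. with no visible growth; ATB MIC read at each compound level.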

[2] = test system: Serratia marcescens (SMA) isolates; test: as above; format: cell-based; conditions: for MIC: Serratia marcescens, read-out: MIC
How it was run: as §1

C=CC1=C(C(=O)O)N2C(=O)[C@@H](NC(=O)/C(=N\OCC(=O)O)c3csc(N)n3)[C@H]2SC1 [FIX, Cefixime]
MIC ([1]; strain KPN UFR28 (TEM-1, SHV-1, CTX-M-15, OXA-1, OXA-232), CLA @ 4 μg/ml+ ATB): 64 µg/mL
MIC ([1]; strain KPN UFR65 (TEM-1, SHV-11, KPC-2), ATB alone): > 128 µg/mL
MIC ([1]; strain KPN UFR65 (TEM-1, SHV-11, KPC-2), CLA @ 4 μg/ml+ ATB): 128 µg/mL
MIC ([1]; strain KPN UFR66 (TEM-1, SHV-11, CTX-M-15, KPC-2), ATB alone): 512 µg/mL
MIC ([1]; strain KPN UFR66 (TEM-1, SHV-11, CTX-M-15, KPC-2), CLA @ 4 μg/ml+ ATB): 64 µg/mL
MIC ([1]; strain KPN UFR67 (TEM-1, SHV-11, KPC-3), ATB alone): > 128 µg/mL
MIC ([1]; strain KPN UFR67 (TEM-1, SHV-11, KPC-3), CLA @ 4 μg/ml+ ATB): 128 µg/mL
MIC ([1]; strain KPN UFR68 (TEM-1, SHV-11, CTX-M-15, KPC-3), ATB alone): > 128 µg/mL
MIC ([1]; strain KPN UFR68 (TEM-1, SHV-11, CTX-M-15, KPC-3), CLA @ 4 μg/ml+ ATB): 64 µg/mL
MIC ([1]; strain KPN UFR76 (TEM-155, SHV-11, ACT-1, OXA-2), ATB alone): > 128 µg/mL
MIC ([1]; strain KPN UFR76 (TEM-155, SHV-11, ACT-1, OXA-2), CLA @ 4 μg/ml+ ATB): > 128 µg/mL
MIC ([1]; strain KPN UFR77 (CMY-2), ATB alone): 128 µg/mL
MIC ([1]; strain KPN UFR77 (CMY-2), CLA @ 4 μg/ml+ ATB): 128 µg/mL
MIC ([1]; strain KPN UFR78 (TEM-1, SHV-1, CTX-M-15, CMY-2, OXA-1, OXA-48), ATB alone): > 128 µg/mL
MIC ([1]; strain KPN UFR78 (TEM-1, SHV-1, CTX-M-15, CMY-2, OXA-1, OXA-48), CLA @ 4 μg/ml+ ATB): > 128 µg/mL
MIC ([1]; strain KPN UFR79 (DHA-1, OXA-1), ATB alone): > 128 µg/mL
MIC ([1]; strain KPN UFR79 (DHA-1, OXA-1), CLA @ 4 μg/ml+ ATB): > 128 µg/mL
MIC ([1]; strain KPN UFR80 (SHV-11, DHA-1, OXA-1), ATB alone): ≤ 0.25 µg/mL
MIC ([1]; strain KPN UFR80 (SHV-11, DHA-1, OXA-1), CLA @ 4 μg/ml+ ATB): 0.5 µg/mL
MIC ([1]; strain KPN UFR81 (TEM-1, SHV-1, DHA-1, OXA-48), ATB alone): > 128 µg/mL
MIC ([1]; strain KPN UFR81 (TEM-1, SHV-1, DHA-1, OXA-48), CLA @ 4 μg/ml+ ATB): > 128 µg/mL
MIC ([1]; strain KPN UFR215 (SHV-27, CTX-M-15), ATB alone): > 128 µg/mL
MIC ([1]; strain KPN UFR215 (SHV-27, CTX-M-15), CLA @ 4 μg/ml+ ATB): 1 µg/mL
MIC ([1]; strain KPN UFR216 (SHV-28, CTX-M-15), ATB alone): > 128 µg/mL
MIC ([1]; strain KPN UFR216 (SHV-28, CTX-M-15), CLA @ 4 μg/ml+ ATB): ≤ 0.25 µg/mL
MIC ([1]; strain KPN UFR217 (TEM-1, SHV-1, CTX-M-15), ATB alone): > 128 µg/mL
MIC ([1]; strain KPN UFR217 (TEM-1, SHV-1, CTX-M-15), CLA @ 4 μg/ml+ ATB): ≤ 0.25 µg/mL
MIC ([1]; strain KPN UFR219 (SHV-12, CTX-M-15), ATB alone): > 128 µg/mL
MIC ([1]; strain KPN UFR219 (SHV-12, CTX-M-15), CLA @ 4 μg/ml+ ATB): 0.5 µg/mL
MIC ([1]; strain KPN UFR220 (TEM-1, SHV-12, DHA-1), ATB alone): > 128 µg/mL
MIC ([1]; strain KPN UFR220 (TEM-1, SHV-12, DHA-1), CLA @ 4 μg/ml+ ATB): > 128 µg/mL
MIC ([1]; strain KPN UFR221 (TEM-1, SHV-11, CTX-M-14, DHA-1), ATB alone): 64 µg/mL
MIC ([1]; strain KPN UFR221 (TEM-1, SHV-11, CTX-M-14, DHA-1), CLA @ 4 μg/ml+ ATB): 128 µg/mL
MIC ([1]; strain KPN UFR222 (DHA-2), ATB alone): > 128 µg/mL
MIC ([1]; strain KPN UFR222 (DHA-2), CLA @ 4 μg/ml+ ATB): > 128 µg/mL
MIC ([1]; strain KPN UFR227O (TEM-x, SHV-x, CTX-M-x), ATB alone): > 128 µg/mL
MIC ([1]; strain KPN UFR227O (TEM-x, SHV-x, CTX-M-x), CLA @ 4 μg/ml+ ATB): > 128 µg/mL
MIC ATB in combination ([2]; SMA UFR30, AF1 @ 4 μg/mL): <=0.25 μg/mL
MIC ATB in combination ([2]; SMA UFR30, AF1 @ 8 μg/mL): <=0.25 μg/mL
MIC ATB in combination ([2]; SMA UFR134, AF1 @ 4 μg/mL): 1 µg/mL
MIC ATB in combination ([2]; SMA UFR134, AF1 @ 8 μg/mL): 1 µg/mL
MIC ATB in combination ([2]; SMA UFR135, AF1 @ 4 μg/mL): 2 µg/mL
MIC ATB in combination ([2]; SMA UFR135, AF1 @ 8 μg/mL): 2 µg/mL
MIC ATB in combination ([2]; SMA UFR136, AF1 @ 4 μg/mL): 4 µg/mL
MIC ATB in combination ([2]; SMA UFR136, AF1 @ 8 μg/mL): 2 µg/mL
MIC ATB in combination ([2]; SMA UFR137, AF1 @ 4 μg/mL): <=0.25 μg/mL
MIC ATB in combination ([2]; SMA UFR137, AF1 @ 8 μg/mL): <=0.25 μg/mL
MIC ATB in combination ([2]; SMA UFR138, AF1 @ 4 μg/mL): <=0.25 μg/mL
MIC ATB in combination ([2]; SMA UFR138, AF1 @ 8 μg/mL): <=0.25 μg/mL
MIC ATB in combination ([2]; SMA UFR139, AF1 @ 4 μg/mL): 0.5 µg/mL
MIC ATB in combination ([2]; SMA UFR139, AF1 @ 8 μg/mL): <=0.25 μg/mL
MIC ATB in combination ([2]; SMA UFR141, AF1 @ 4 μg/mL): 0.5 µg/mL
MIC ATB in combination ([2]; SMA UFR141, AF1 @ 8 μg/mL): 0.5 µg/mL
MIC ATB in combination ([2]; SMA UFR142, AF1 @ 4 μg/mL): 2 µg/mL
MIC ATB in combination ([2]; SMA UFR142, AF1 @ 8 μg/mL): 1 µg/mL
MIC ATB in combination ([2]; SMA UFR143, AF1 @ 4 μg/mL): 0.25 µg/mL
MIC ATB in combination ([2]; SMA UFR143, AF1 @ 8 μg/mL): 0.25 µg/mL
MIC ATB in combination ([2]; SMA UFR239, AF1 @ 4 μg/mL): 0.5 µg/mL
MIC ATB in combination ([2]; SMA UFR239, AF1 @ 8 μg/mL): 0.5 µg/mL
MIC ([2]; ATB alone, strain SMA UFR238 (OXA-48)): 1 µg/mL
MIC ([2]; ATB combined with CLA @ 4 μg/ml, strain SMA UFR238 (OXA-48)): 2 µg/mL
MIC ([2]; SMA UFR143, alone): 512 µg/mL
MIC ([2]; strain SMA UFR30 (OXA-405), ATB alone): 1 µg/mL
MIC ([2]; strain SMA UFR30 (OXA-405), CLA @ 4 μg/ml+ ATB): 1 µg/mL
MIC ([2]; strain SMA UFR134 (TEM-1, BES-1), ATB alone): > 128 µg/mL
MIC ([2]; strain SMA UFR134 (TEM-1, BES-1), CLA @ 4 μg/ml+ ATB): 32 µg/mL
MIC ([2]; strain SMA UFR135 (TEM-1, KPC-2), ATB alone): 64 µg/mL
MIC ([2]; strain SMA UFR135 (TEM-1, KPC-2), CLA @ 4 μg/ml+ ATB): 32 µg/mL
MIC ([2]; strain SMA UFR136 (TEM-1, SHV-12, KPC-2), ATB alone): > 128 µg/mL
MIC ([2]; strain SMA UFR136 (TEM-1, SHV-12, KPC-2), CLA @ 4 μg/ml+ ATB): > 128 µg/mL
MIC ([2]; strain SMA UFR137 (SME-1), ATB alone): 0.5 µg/mL
MIC ([2]; strain SMA UFR137 (SME-1), CLA @ 4 μg/ml+ ATB): 1 µg/mL
MIC ([2]; strain SMA UFR138 (SME-1), ATB alone): 0.5 µg/mL
MIC ([2]; strain SMA UFR138 (SME-1), CLA @ 4 μg/ml+ ATB): 0.5 µg/mL
MIC ([2]; strain SMA UFR139 (SME-2), ATB alone): 1 µg/mL
MIC ([2]; strain SMA UFR139 (SME-2), CLA @ 4 μg/ml+ ATB): 2 µg/mL
MIC ([2]; strain SMA UFR141 (OXA-48), ATB alone): 2 µg/mL
MIC ([2]; strain SMA UFR141 (OXA-48), CLA @ 4 μg/ml+ ATB): 0.5 µg/mL
MIC ([2]; strain SMA UFR142 (OXA-48), ATB alone): 2 µg/mL
MIC ([2]; strain SMA UFR142 (OXA-48), CLA @ 4 μg/ml+ ATB): 2 µg/mL
MIC ([2]; strain SMA UFR143 (CTX-M-15, OXA-1, OXA-48), ATB alone): 512 µg/mL
MIC ([2]; strain SMA UFR143 (CTX-M-15, OXA-1, OXA-48), CLA @ 4 μg/ml+ ATB): 64 µg/mL
MIC ([2]; strain SMA UFR239 (ESAC), ATB alone): 2 µg/mL
MIC ([2]; strain SMA UFR239 (ESAC), CLA @ 4 μg/ml+ ATB): 2 µg/mL
MIC ATB in combination ([2]; strain SMA UFR238, antibacterial combined with AF1 @ 4 μg/mL): 1 µg/mL
MIC ATB in combination ([2]; strain SMA UFR238, antibacterial combined with AF1 @ 8 μg/mL): 0.5 µg/mL
